Experimental data: paper PMC8955197, “Polyketide Derivatives from the Endophytic Fungus Phaeosphaeria sp. LF5 Isolated from Huperzia serrata and Their Acetylcholinesterase Inhibitory Activities” (Journal of Fungi, 2022)

Each compound was assayed against AChE (Homo sapiens, UniProt P22303) (assay: biochemical). Conditions: mean ± SD of three parallel measurements; phosphate buffer pH 7.7, 25 °C; read-out: IC50 (µM), acetylcholinesterase inhibitory activity.
Procedure: The assay was carried out in a 96-well microtiter plate reader. […] The mixture was incubated for 5 min at 25 °C. […] Percent inhibition was calculated through the following formula: (control absorbance–sample absorbance)/control absorbance × 100. The IC50 values were the means ± SD of three determinations.

AChE, sequence (P22303 32-614): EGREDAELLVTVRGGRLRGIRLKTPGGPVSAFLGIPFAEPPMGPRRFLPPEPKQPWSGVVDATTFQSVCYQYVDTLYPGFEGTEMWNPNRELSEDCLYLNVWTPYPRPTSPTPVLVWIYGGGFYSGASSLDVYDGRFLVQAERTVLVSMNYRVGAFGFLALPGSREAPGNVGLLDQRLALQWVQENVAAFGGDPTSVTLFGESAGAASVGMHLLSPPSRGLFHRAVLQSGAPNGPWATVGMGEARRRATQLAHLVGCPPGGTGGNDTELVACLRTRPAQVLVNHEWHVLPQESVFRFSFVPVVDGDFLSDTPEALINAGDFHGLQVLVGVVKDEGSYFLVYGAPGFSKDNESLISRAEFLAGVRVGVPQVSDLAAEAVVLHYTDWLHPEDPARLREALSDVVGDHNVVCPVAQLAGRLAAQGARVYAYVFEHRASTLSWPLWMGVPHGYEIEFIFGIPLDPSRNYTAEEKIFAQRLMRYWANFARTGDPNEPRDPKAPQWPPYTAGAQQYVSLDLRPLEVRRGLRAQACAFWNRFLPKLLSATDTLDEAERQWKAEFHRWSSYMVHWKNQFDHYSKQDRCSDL

Row | Structure (SMILES) | IC50 [µM]
1 | C[C@@H](O)Cc1cc2cc(O)cc(O)c2c(=O)o1 [Compound 11, de-O-methyldiaporthin] | 21.2 ± 1.53
2 | C/C(=C\C(=O)O)CCO [Compound 5, E-Δ^2-anhydromevalonic acid] | > 100
3 | CC1=CC(=O)OCC1 [Compound 6, 4-methyl-5,6-dihydropyren-2-one] | > 100
4 | C[C@@H]1Cc2cc(O)cc(O)c2C(=O)O1 [Compound 8, (R)-6-hydroxymellein] | > 100
5 | CC1C=C(CC(=O)O)C(=O)O1 (centres unmarked) [Compound 2, 2-(5-methyl-2-oxo-2,5-dihydrofuran-3-yl)-acetic acid] | > 100
6 | CC(O)C(O)c1cc2cc(O)cc(O)c2c(=O)o1 (stereo not drawn) [Compound 9, 6,8-dihydroxy-3-(1′R, 2′R-dihydroxypropyl)-isocoumarin] | > 100
7 | Cc1cc(C(=O)O)cc(C(C)O)n1 (centres unmarked) [Compound 7, 2-(1-hydroxyethyl)-6-methylisonicotinic acid] | > 100
8 | COc1cc(O)cc2cc(C)oc(=O)c12 [Compound 10, 6-hydroxy-8-methoxy-3-methylisocoumarin] | > 100
9 | C[C@@H]1C=C(C[C@@H](O)[C@H](C)O)C(=O)O1 [Compound 4] | 6.26 ± 0.15
10 | CC1C=C(CO)C(=O)O1 (centres unmarked) [Compound 1, 3-(hydroxymethyl)-5-methylfuran-2(5H)-one] | > 100
11 | COC(=O)CC1=CC(C)OC1=O (centres unmarked) [Compound 3, methyl-2-(5-methyl-2-oxo-2,5-dihydrofuran-3-yl)-acetate] | > 100
